One may read the CC50 as the concentration at which the toxic effect on the cells reaches its halfway point. A high value points to lower toxicity to the cells. As a reminder, the pEC50 is the EC50 on a negative log10 scale, so that one unit is a factor of ten.

pEC50: −log10 of the molar value.

The values below come from patent US20220409619A1, “INHIBITORS OF HUMAN IMMUNODEFICIENCY VIRUS REPLICATION” (VIIV HEALTHCARE UK (No. 5) LIMITED, priority 2019, published 2022).

Data set [1] can be described thus: Compound cytotoxicity, XTT-based colorimetric assay. As to conditions: human; uninfected MT2 cells, day 4, XTT-based colorimetric assay. It is filed as cell-based. As to the method:
Compound cytotoxicity and the corresponding CC50 values were determined using the same protocol as described in the antiviral assay except that uninfected cells were used. Cytotoxicity was assessed on day 4 in uninfected MT2 cells by using a XTT (2,3-bis[2-Methoxy-4-nitro-5-sulfophenyl]-2H-tetrazolium-5-carboxyanilide inner salt)-based colorimetric assay (Sigma-Aldrich, St Louis, Mo.).
(In general: Tetrazolium dyes change colour on reduction, which living cells bring about.)

The subject of data set [2] is recombinant NL4-3 virus (nef section replaced with Renilla luciferase gene) in MT-2 cells. The experiment in a line: HIV cell culture assay (antiviral activity, luciferase readout). The class given is cell-based. Particulars: Renilla, NL43. The procedure:
HIV cell culture assay—MT-2 cells, 293T cells and the proviral DNA clone of NL4-3 virus were obtained from the NIH AIDS Research and Reference Reagent Program. MT-2 cells were propagated in RPMI 1640 media supplemented with 10% heat inactivated fetal bovine serum (FBS), 100 μg/ml penicillin G and up to 100 units/mL streptomycin. The 293T cells were propagated in DMEM media supplemented with 10% heat inactivated FBS, 100 μg/mL penicillin G and 100 μg/mL streptomycin. A recombinant NL4-3 proviral clone, in which a section of the nef gene was replaced with the Renilla luciferase gene, was used to make the reference virus used in these studies. The recombinant virus was prepared through transfection of the recombinant NL4-3 proviral clone into 293T cells using Transit-293 Transfection Reagent from Mirus Bio LLC (Madison, Wis.). Supernatent was harvested after 2-3 days and the amount of virus present was titered in MT-2 cells using luciferase enzyme activity as a marker by measuring luciferase enzyme activity. Luciferase was quantitated using the EnduRen Live Cell Substrate from Promega (Madison, Wis.). Antiviral activities of compounds toward the recombinant virus were quantified by measuring luciferase activity in MT-2 cells infected for 4-5 days with the recombinant virus in the presence of serial dilutions of the compound.
The 50% effective concentration (EC50) was calculated by using the exponential form of the median effect equation where (Fa)=1/[1+(ED50/drug conc.)^m] (Johnson V A, Byington R T. Infectivity Assay. In Techniques in HIV Research. ed. Aldovini A, Walker B D. 71-76. New York: Stockton Press. 1990). Curve fitting and analysis were performed with ActivityBase XE Runner software version 9.1.0.4 using model 203 (ID Business Solutions, LTD, Guildford, UK).

In data set [1], `Cn1nc(NS(C)(=O)=O)c2c(Cl)ccc(-n3c([C@H](Cc4cc(F)cc(F)c4)NC(=O)Cn4nc(C(F)F)c5c4C(F)(F)[C@@H]4C[C@H]54)nc(-c4cccc(C(F)(F)F)n4)cc3=O)c21` (atropisomer, axis not shown; (P)) [Example 7, N-((S)-1-((1P)-1-(4-chloro-1-methyl-3-(methylsulfonamido)-1H-indazol-7-yl)-6-oxo-4-(6-(trifluoromethyl)pyridin-2-yl)-1,6-dihydropyrimidin-2-yl)-2-(3,5-difluorophenyl)ethyl)-2-((3bS,4aR)-3-(difluoromethyl)-5,5-difluoro-3b,4,4a,5-tetrahydro-1H-cyclopropa[3,4]cyclopenta[1,2-c]pyrazol-1-yl)acetamide] returned a CC50 at 4 days greater than 100 nM. Besides, the pEC50 in data set [2] is 9.28.

In the case of `Cn1nc(NS(C)(=O)=O)c2c(Cl)ccc(-n3c([C@H](Cc4cc(F)cc(F)c4)NC(=O)Cn4nc(C(F)F)c5c4C(F)(F)[C@@H]4C[C@H]54)nc(-c4ccn(CC(C)(F)F)n4)cc3=O)c21` (atropisomer, axis not shown; (P)) [Example 8, N-((S)-1-((1P)-1-(4-chloro-1-methyl-3-(methylsulfonamido)-1H-indazol-7-yl)-4-(1-(2,2-difluoropropyl)-1H-pyrazol-3-yl)-6-oxo-1,6-dihydropyrimidin-2-yl)-2-(3,5-difluorophenyl)ethyl)-2-((3bS,4aR)-3-(difluoromethyl)-5,5-difluoro-3b,4,4a,5-tetrahydro-1H-cyclopropa[3,4]cyclopenta[1,2-c]pyrazol-1-yl)acetamide], in data set [1], the CC50 at 4 days was greater than 100 nM. Further, the pEC50 in data set [2] is 9.55.

In data set [1], `COC(C)(C)C#Cc1cc(=O)n(-c2ccc(Cl)c3c(NS(C)(=O)=O)nn(C)c23)c([C@H](Cc2cc(F)cc(F)c2)NC(=O)Cn2nc(C(F)F)c3c2C(F)(F)[C@@H]2C[C@H]32)n1` (atropisomer, axis not shown; (P)) [Example 9, N-((S)-1-((1P)-1-(4-chloro-1-methyl-3-(methylsulfonamido)-1H-indazol-7-yl)-4-(3-methoxy-3-methylbut-1-yn-1-yl)-6-oxo-1,6-dihydropyrimidin-2-yl)-2-(3,5-difluorophenyl)ethyl)-2-((3bS,4aR)-3-(difluoromethyl)-5,5-difluoro-3b,4,4a,5-tetrahydro-1H-cyclopropa[3,4]cyclopenta[1,2-c]pyrazol-1-yl)acetamide] displayed a CC50 at 4 days greater than 100 nM. Further, the pEC50 in data set [2] was 10.40.

For `COC(C)(C)CCc1cc(=O)n(-c2ccc(Cl)c3c(NS(C)(=O)=O)nn(C)c23)c([C@H](Cc2cc(F)cc(F)c2)NC(=O)Cn2nc(C(F)F)c3c2C(F)(F)[C@@H]2C[C@H]32)n1` (atropisomer, axis not shown; (P)) [Example 10, N-((S)-1-((1P)-1-(4-chloro-1-methyl-3-(methylsulfonamido)-1H-indazol-7-yl)-4-(3-methoxy-3-methylbutyl)-6-oxo-1,6-dihydropyrimidin-2-yl)-2-(3,5-difluorophenyl)ethyl)-2-((3bS,4aR)-3-(difluoromethyl)-5,5-difluoro-3b,4,4a,5-tetrahydro-1H-cyclopropa[3,4]cyclopenta[1,2-c]pyrazol-1-yl)acetamide], the CC50 at 4 days in data set [1] is greater than 100 nM. For the same compound, the pEC50 in data set [2] is 10.10.

In data set [1], `CCOc1ncc(-c2cc(=O)n(-c3ccc(Cl)c4c(NS(C)(=O)=O)nn(C)c34)c([C@H](Cc3cc(F)cc(F)c3)NC(=O)Cn3nc(C(F)F)c4c3C(F)(F)[C@@H]3C[C@H]43)n2)cn1` (atropisomer, axis not shown; (P)) [Example 11, N-((S)-1-((1P)-1-(4-chloro-1-methyl-3-(methylsulfonamido)-1H-indazol-7-yl)-2′-ethoxy-6-oxo-1,6-dihydro-[4,5′-bipyrimidin]-2-yl)-2-(3,5-difluorophenyl)ethyl)-2-((3bS,4aR)-3-(difluoromethyl)-5,5-difluoro-3b,4,4a,5-tetrahydro-1H-cyclopropa[3,4]cyclopenta[1,2-c]pyrazol-1-yl)acetamide] had a CC50 at 4 days greater than 100 nM. For the same compound, the pEC50 in data set [2] was 9.09.

On to `COc1cnc(-c2cc(=O)n(-c3ccc(Cl)c4c(NS(C)(=O)=O)nn(C)c34)c([C@H](Cc3cc(F)cc(F)c3)NC(=O)Cn3nc(C(F)F)c4c3C(F)(F)[C@@H]3C[C@H]43)n2)cn1` (atropisomer, axis not shown; (P)) [Example 13, N-((S)-1-((1P)-1-(4-chloro-1-methyl-3-(methylsulfonamido)-1H-indazol-7-yl)-4-(5-methoxypyrazin-2-yl)-6-oxo-1,6-dihydropyrimidin-2-yl)-2-(3,5-difluorophenyl)ethyl)-2-((3bS,4aR)-3-(difluoromethyl)-5,5-difluoro-3b,4,4a,5-tetrahydro-1H-cyclopropa[3,4]cyclopenta[1,2-c]pyrazol-1-yl)acetamide], for which, in data set [1], the CC50 at 4 days is greater than 100 nM. In data set [2], the pEC50 was 9.70.

For `Cn1nc(NS(C)(=O)=O)c2c(Cl)ccc(-n3c([C@H](Cc4cc(F)cc(F)c4)NC(=O)Cn4nc(C(F)F)c5c4C(F)(F)[C@@H]4C[C@H]54)nc(-c4cnc(C(C)(F)F)s4)cc3=O)c21` (atropisomer, axis not shown; (P)) [Example 15, N-((S)-1-((1P)-1-(4-chloro-1-methyl-3-(methylsulfonamido)-1H-indazol-7-yl)-4-(2-(1,1-difluoroethyl)thiazol-5-yl)-6-oxo-1,6-dihydropyrimidin-2-yl)-2-(3,5-difluorophenyl)ethyl)-2-((3bS,4aR)-3-(difluoromethyl)-5,5-difluoro-3b,4,4a,5-tetrahydro-1H-cyclopropa[3,4]cyclopenta[1,2-c]pyrazol-1-yl)acetamide], the CC50 at 4 days in data set [1] is greater than 100 nM. In data set [2], the pEC50 is 9.23.

`Cc1ccnc(-c2cc(=O)n(-c3ccc(Cl)c4c(NS(C)(=O)=O)nn(C)c34)c([C@H](Cc3cc(F)cc(F)c3)NC(=O)Cn3nc(C(F)F)c4c3C(F)(F)[C@@H]3C[C@H]43)n2)c1` (atropisomer, axis not shown; (P)) [Example 16, N-((S)-1-((1P)-1-(4-chloro-1-methyl-3-(methylsulfonamido)-1H-indazol-7-yl)-4-(4-methylpyridin-2-yl)-6-oxo-1,6-dihydropyrimidin-2-yl)-2-(3,5-difluorophenyl)ethyl)-2-((3bS,4aR)-3-(difluoromethyl)-5,5-difluoro-3b,4,4a,5-tetrahydro-1H-cyclopropa[3,4]cyclopenta[1,2-c]pyrazol-1-yl)acetamide] had a CC50 at 4 days in data set [1] greater than 100 nM. Also, the pEC50 in data set [2] is 9.51.

Turning to `Cn1nc(NS(C)(=O)=O)c2c(Cl)ccc(-n3c([C@H](Cc4cc(F)cc(F)c4)NC(=O)Cn4nc(C(F)F)c5c4C(F)(F)[C@@H]4C[C@H]54)nc(-c4csc(S(C)(=O)=O)n4)cc3=O)c21` (atropisomer, axis not shown; (P)) [Example 17, N-((S)-1-((1P)-1-(4-chloro-1-methyl-3-(methylsulfonamido)-1H-indazol-7-yl)-4-(2-(methylsulfonyl)thiazol-4-yl)-6-oxo-1,6-dihydropyrimidin-2-yl)-2-(3,5-difluorophenyl)ethyl)-2-((3bS,4aR)-3-(difluoromethyl)-5,5-difluoro-3b,4,4a,5-tetrahydro-1H-cyclopropa[3,4]cyclopenta[1,2-c]pyrazol-1-yl)acetamide], in data set [1], the CC50 at 4 days is greater than 100 nM. Also, the pEC50 in data set [2] was 9.09.

As to `Cn1nc(NS(C)(=O)=O)c2c(Cl)ccc(-n3c([C@H](Cc4cc(F)cc(F)c4)NC(=O)Cn4nc(C(F)F)c5c4C(F)(F)[C@@H]4C[C@H]54)nc(-c4csc(C(C)(C)O)n4)cc3=O)c21` (atropisomer, axis not shown; (P)) [Example 18, N-((S)-1-((1P)-1-(4-chloro-1-methyl-3-(methylsulfonamido)-1H-indazol-7-yl)-4-(2-(2-hydroxypropan-2-yl)thiazol-4-yl)-6-oxo-1,6-dihydropyrimidin-2-yl)-2-(3,5-difluorophenyl)ethyl)-2-((3bS,4aR)-3-(difluoromethyl)-5,5-difluoro-3b,4,4a,5-tetrahydro-1H-cyclopropa[3,4]cyclopenta[1,2-c]pyrazol-1-yl)acetamide], the CC50 at 4 days in data set [1] is greater than 100 nM. Also, the pEC50 in data set [2] is 9.33.
